pKi: −log10 of the molar value.
Legend:
[1] = target: T1, Adenosine receptor A1 (Rattus norvegicus, UniProt P25099); experiment: Binding affinity of [3H]R-PIA for rat Adenosine A1 receptor in HEK293 cells
T1 sequence (P25099 whole entry): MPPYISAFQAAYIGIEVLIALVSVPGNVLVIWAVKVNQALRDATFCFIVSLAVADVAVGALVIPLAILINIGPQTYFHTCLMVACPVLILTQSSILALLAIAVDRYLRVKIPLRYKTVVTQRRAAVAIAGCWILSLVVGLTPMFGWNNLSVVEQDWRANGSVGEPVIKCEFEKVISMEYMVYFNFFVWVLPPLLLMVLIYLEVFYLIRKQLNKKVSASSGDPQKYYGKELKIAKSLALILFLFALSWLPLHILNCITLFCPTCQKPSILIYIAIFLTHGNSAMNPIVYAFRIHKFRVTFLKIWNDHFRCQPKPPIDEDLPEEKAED

[2] = target: T2, Adenosine receptor A2b (Rattus norvegicus, UniProt P29276); experiment: Inhibition of […] binding to rat Adenosine A2B receptor expressed in HEK cells; type: cell-based, HEK293
T2 sequence (P29276 whole entry): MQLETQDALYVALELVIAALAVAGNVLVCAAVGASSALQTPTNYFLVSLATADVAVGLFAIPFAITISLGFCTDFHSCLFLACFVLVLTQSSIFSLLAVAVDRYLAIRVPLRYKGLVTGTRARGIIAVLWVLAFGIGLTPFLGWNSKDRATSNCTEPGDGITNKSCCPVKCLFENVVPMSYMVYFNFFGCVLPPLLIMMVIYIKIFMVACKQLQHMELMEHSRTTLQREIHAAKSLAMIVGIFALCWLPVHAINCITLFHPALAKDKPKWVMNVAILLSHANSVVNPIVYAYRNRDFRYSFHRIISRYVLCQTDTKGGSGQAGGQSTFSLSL

[3] = target: T3, Adenosine receptor A3 (Homo sapiens, UniProt P0DMS8); experiment: Inhibition of [125I]I-AB-MECA binding to human Adenosine A3 receptor
T3 sequence (P0DMS8 whole entry): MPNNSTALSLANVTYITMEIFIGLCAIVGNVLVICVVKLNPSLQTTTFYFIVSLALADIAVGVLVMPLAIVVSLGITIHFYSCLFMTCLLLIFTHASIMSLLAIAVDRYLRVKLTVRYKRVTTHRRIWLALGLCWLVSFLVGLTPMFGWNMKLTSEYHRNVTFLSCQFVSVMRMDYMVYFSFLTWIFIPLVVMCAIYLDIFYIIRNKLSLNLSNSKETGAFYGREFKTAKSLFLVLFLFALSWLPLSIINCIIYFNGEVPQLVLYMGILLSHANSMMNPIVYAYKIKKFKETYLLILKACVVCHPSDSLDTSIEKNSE

[4] = target: T4, Adenosine receptor A2b (Homo sapiens, UniProt P29275); experiment: Binding affinity at human Adenosine A2B receptor expressed in HEK293 cells, using [125I]ABOPX as radioligand; type: cell-based
T4 sequence (P29275 whole entry): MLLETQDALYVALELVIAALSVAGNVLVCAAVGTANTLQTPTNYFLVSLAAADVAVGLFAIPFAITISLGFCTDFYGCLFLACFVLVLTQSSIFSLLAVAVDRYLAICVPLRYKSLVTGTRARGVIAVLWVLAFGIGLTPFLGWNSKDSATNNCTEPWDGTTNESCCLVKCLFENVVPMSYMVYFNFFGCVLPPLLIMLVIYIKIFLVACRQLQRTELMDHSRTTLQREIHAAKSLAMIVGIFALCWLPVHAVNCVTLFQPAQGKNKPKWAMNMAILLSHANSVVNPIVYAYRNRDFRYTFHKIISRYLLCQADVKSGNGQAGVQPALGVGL

[5] = species on record: Rattus norvegicus; experiment: Relative affinities for rat Adenosine A1 and Adenosine A2B receptors
[6] = species on record: Rattus norvegicus; experiment: Relative affinities for rat Adenosine A2A and Adenosine A2B receptors
[7] = target: Adenosine receptor A2a (Rattus norvegicus, UniProt P30543); experiment: Binding affinity at rat Adenosine A2A receptor by [3H]-CGS- 21680 displacement.
[8] = target: T5, Adenosine receptor A1 (Rattus norvegicus) (UniProt P25099); experiment: Percent displacement of [3H]-R-PIA from rat Adenosine A1 receptor in HEK293 cells; type: cell-based
T5 sequence (whole entry): T1 sequence (P25099 whole entry)

Chain of Adenosine receptor A2a (P30543 whole entry): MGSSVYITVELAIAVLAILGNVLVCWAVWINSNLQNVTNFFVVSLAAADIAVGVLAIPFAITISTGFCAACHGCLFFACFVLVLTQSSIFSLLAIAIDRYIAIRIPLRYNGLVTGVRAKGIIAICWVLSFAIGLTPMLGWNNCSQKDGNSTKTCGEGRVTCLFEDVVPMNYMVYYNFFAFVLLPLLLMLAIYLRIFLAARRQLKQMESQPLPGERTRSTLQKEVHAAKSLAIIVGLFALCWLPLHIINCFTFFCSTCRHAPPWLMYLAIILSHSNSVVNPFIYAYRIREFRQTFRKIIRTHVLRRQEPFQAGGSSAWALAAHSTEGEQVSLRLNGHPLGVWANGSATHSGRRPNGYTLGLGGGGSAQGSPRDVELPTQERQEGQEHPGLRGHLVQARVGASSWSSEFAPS

| pKi [1] | pKi [2] | pKi [3] | pKi [4] | Ratio [5] | Ratio [6] | pKi [7] | Displacement [8] | Compound |
| --- | --- | --- | --- | --- | --- | --- | --- | --- |
| 5.48 | 5.73 | 5.63 | 6.44 | – | – | – | – | CCCn1c(=O)[nH]c2nc[nH]c2c1=O |
| – | 5.77 | – | 6.51 | > 6 | 2.1 | 5.45 | 35% | C=CCn1c(=O)c2c(nc(-c3ccccc3)n2CCCl)n(C)c1=O |
